Results reported in patent US20240425478A1, “CYCLOPENTYLPYRAZOLE CDK2 INHIBITORS” (Genentech, Inc., priority 2021, published 2024).
Where two headings read alike, the source gives them in different places.

Legend:
[1] = target: T1, Cyclin Dependent Kinase 1/Cyclin A2 (CDK1-cycA2) (Homo sapiens, UniProt P06493); test: CDK1-cycA2 TR-FRET (Lance) enzyme assay; type: biochemical; settings: for Ki: Table O, enzymatic assay; for FS CDK1/CDK2: fold selectivity, enzymatic Ki ratio
T1 construct: purchased ProQinase 0134-0054-1
T1 sequence (P06493 whole entry): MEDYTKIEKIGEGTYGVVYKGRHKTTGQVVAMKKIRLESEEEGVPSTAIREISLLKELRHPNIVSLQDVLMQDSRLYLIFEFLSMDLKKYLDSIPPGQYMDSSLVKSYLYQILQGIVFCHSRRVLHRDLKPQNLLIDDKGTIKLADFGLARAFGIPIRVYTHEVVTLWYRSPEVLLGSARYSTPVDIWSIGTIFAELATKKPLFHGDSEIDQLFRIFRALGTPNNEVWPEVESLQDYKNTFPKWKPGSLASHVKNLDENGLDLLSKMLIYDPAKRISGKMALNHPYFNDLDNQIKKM
T1 sequence (P20248 whole entry partner): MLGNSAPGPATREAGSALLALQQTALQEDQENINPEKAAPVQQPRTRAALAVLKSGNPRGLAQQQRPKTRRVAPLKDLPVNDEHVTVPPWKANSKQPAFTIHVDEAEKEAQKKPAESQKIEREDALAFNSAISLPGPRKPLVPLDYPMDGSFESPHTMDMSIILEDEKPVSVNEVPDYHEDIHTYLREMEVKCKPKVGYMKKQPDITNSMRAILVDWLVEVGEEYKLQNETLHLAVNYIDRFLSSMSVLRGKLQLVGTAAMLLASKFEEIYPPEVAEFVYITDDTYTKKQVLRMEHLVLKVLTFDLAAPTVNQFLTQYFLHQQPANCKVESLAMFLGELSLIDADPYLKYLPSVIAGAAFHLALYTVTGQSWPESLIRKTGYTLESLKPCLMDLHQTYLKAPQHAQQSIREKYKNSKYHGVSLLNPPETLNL
How it was run: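 TR-FRET (Lance) detection of phospho-4E-BP1 with a europium-labelled antibody after EDTA quench (15 mM final); signal taken as acceptor/donor ratio. Enzyme and compound were pre-incubated 30 min in HEPES pH 7.5 buffer with MgCl2, TCEP, BGG and Brij 35. Ki derived by Morrison fit.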

[2] = target: T2, Cyclin Dependent Kinase 2/Cyclin E1 (CDK2-cycE1) (Homo sapiens, UniProt P24941); test: CDK2-cycE1 TR-FRET (LANCE) enzyme assay; type: biochemical; settings: for Ki: enzymatic assay, read-out: CDK2 Ki; for FS CDK1/CDK2 / FS CDK4/CDK2: fold selectivity; for FS CDK1/CDK2: enzymatic CDK1 Ki over CDK2 Ki; for FS CDK4/CDK2: enzymatic CDK4 Ki over CDK2 Ki; for CDK2 Ki fold change in potency versus Comparator D / CDK2 Ki fold change in potency versus Comparator E: in brackets after CDK2 Ki
T2 construct: purchased ProQinase 0050-0055-1
How it was run: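 Kinase reaction buffer: 50 mM HEPES pH 7.5, 10 mM MgCl2, 2 mM TCEP, 0.05% BGG, 0.01% Brij 35, with 30 min compound–enzyme pre-incubation.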

[3] = target: T3, Cyclin Dependent Kinase 4/Cyclin D3 (CDK4-cycD3) (Homo sapiens, UniProt P11802); test: CDK4-cycD3 TR-FRET (LANCE) enzyme assay; type: biochemical; settings: for Ki: Table O, enzymatic assay; for FS CDK4/CDK2: fold selectivity, enzymatic Ki ratio
T3 construct: purchased Carna Biosciences 04-105
T3 sequence (P11802 whole entry): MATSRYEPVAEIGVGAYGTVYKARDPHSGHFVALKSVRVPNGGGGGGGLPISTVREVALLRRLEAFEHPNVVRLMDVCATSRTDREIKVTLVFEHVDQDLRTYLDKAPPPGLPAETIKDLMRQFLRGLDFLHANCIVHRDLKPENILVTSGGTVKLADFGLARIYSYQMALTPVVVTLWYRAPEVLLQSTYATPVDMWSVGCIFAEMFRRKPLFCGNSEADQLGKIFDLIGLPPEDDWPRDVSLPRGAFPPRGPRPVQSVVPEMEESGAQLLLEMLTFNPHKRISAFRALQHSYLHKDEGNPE
T3 sequence (P30281 whole entry partner): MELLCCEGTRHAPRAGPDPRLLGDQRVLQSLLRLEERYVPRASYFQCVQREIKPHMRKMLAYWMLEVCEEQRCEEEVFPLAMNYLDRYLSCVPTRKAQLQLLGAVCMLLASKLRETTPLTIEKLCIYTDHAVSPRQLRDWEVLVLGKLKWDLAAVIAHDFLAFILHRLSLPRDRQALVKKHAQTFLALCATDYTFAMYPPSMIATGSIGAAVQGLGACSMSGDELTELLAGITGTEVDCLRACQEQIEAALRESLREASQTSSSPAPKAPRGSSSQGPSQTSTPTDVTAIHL
How it was run: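 Compound dose responses pre-incubated 30 min with enzyme mix in 50 mM HEPES pH 7.5, 10 mM MgCl2, 2 mM TCEP, 0.05% BGG, 0.01% Brij 35. Reaction quenched with EDTA (15 mM final); Eu-anti-phospho-4E-BP1 TR-FRET detection, acceptor/donor ratio. Ki derived by Morrison equation.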

[4] = test system: OVISE (JCRB1043, CCNE1-amplified); test: OVISE EdU incorporation cell proliferation assay (CDK2-dependent); type: cell-based; settings: for IC50 / FS SKOV-3/OVISE / FS p-H3/OVISE: Table O; for IC50: cellular assay, read-out: CDK2 OVISE IC50; for FS SKOV-3/OVISE / FS p-H3/OVISE: fold selectivity; for FS SKOV-3/OVISE: cellular SKOV-3 IC50 over OVISE IC50; for FS p-H3/OVISE: cellular p-H3 IC50 over OVISE IC50; for CDK2 OVISE IC50 fold change in potency versus Comparator D: Table R; for CDK2 OVISE IC50 fold change in potency versus Comparator D / CDK2 OVISE IC50 fold change in potency versus Comparator E: in brackets after OVISE IC50; for CDK2 OVISE IC50 fold change in potency versus Comparator E: Table S
How it was run: (§1)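 EdU incorporation (0.5 μM final, last 8 h) follows a 16 h compound exposure at 37 °C, 5% CO2 in RPMI plus 10% FBS, 0.5% DMSO. After fixation, imaging scores EdU-positive cells; a 4-parameter logistic fit of that fraction gives IC50.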

SKOV-3 (ATCC HTB-77) = test: SKOV-3 EdU incorporation cell proliferation assay (CDK4/6-dependent); type: cell-based; settings: for IC50: Homo sapiens, cellular assay, read-out: CDK4/6 SKOV-3 IC50; for selectivity for CDK2 over CDK4 compared with Comparator E: SKOV-3/OVISE fold-selectivity cellular assay data; for FS SKOV-3/OVISE: fold selectivity, cellular IC50 ratio
How it was run: as §1

HCT116 cells = test: p-H3 HCT-116 mitotic release cell proliferation assay (cellular CDK1); type: cell-based; settings: Homo sapiens, HCT-116; Table O, cellular assay; read-out: CDK1 p-H3 IC50
How it was run: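 Phospho-Histone H3 (Ser10) in lysates was quantified by a two-antibody HTRF FRET read (≥2 h, room temperature). Before this, HCT116 cells held in mitosis by 16 h of 500 nM nocodazole were treated with compound for 4 h at 37 °C, 0.1% DMSO.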

| SMILES | Ki [1] | FS CDK1/CDK2 ([1]; Table R) | FS CDK1/CDK2 ([1]; Table S) | Ki ([2]; Table O) | FS CDK1/CDK2 ([2]; Table O) | FS CDK4/CDK2 ([2]; Table O) | Ki ([2]; Table R) | CDK2 Ki fold change in potency versus Comparator D ([2]; Table R) | Ki ([2]; Table S) | CDK2 Ki fold change in potency versus Comparator E ([2]; Table S) | Ki [3] | FS CDK4/CDK2 increased over Comparator D, (+) sign ([3]; Table R) | FS CDK4/CDK2 ([3]; Table R) | FS CDK4/CDK2 ([3]; Table S) | IC50 [4] | FS SKOV-3/OVISE [4] | FS p-H3/OVISE [4] | CDK2 OVISE IC50 fold change in potency versus Comparator D [4] | CDK2 OVISE IC50 fold change in potency versus Comparator E [4] | IC50 (SKOV-3 (ATCC HTB-77); SK-OV-3, Table O) | further results |
| --- | --- | --- | --- | --- | --- | --- | --- | --- | --- | --- | --- | --- | --- | --- | --- | --- | --- | --- | --- | --- | --- |
| CC(C)(C)NC(=O)O[C@@H]1CC[C@H](c2cc(Nc3ccncc3)n[nH]2)C1 [Example 4H, (1R,3S)-3-(3-(pyridin-4-ylamino)-1H-pyrazol-5-yl)cyclopentyl tert-butylcarbamate] | 180 nM | 90 | 90 | 2 nM | 90 | 55 | 2 nM | 1.4 fold | 2 nM | 0.3 fold | 110 nM | (+) | 55 | 55 | 38 nM | 25 | 1.4 | 100 fold | 4.4 fold | 950 nM | FS CDK1/CDK2 increased over Comparator D, (+) sign ([1]; Table R): (+); FS CDK1/CDK2 increased over Comparator E, (+) sign ([1]; Table S): (+); FS CDK4/CDK2 increased over Comparator E, (+) sign ([3]; Table S): (+); CDK2 cell potency compared with Comparator E ([4]; CDK2 OVISE cellular assay data): more potent CDK2 cell inhibitors compared to Comparator E; selectivity for CDK2 over CDK4 compared with Comparator E (SKOV-3 (ATCC HTB-77)): increase in selectivity for CDK2 over CDK4; FS SKOV-3/OVISE increased over Comparator D, (+) sign (SKOV-3 (ATCC HTB-77); Table R): (+); FS SKOV-3/OVISE (SKOV-3 (ATCC HTB-77); Table R): 25; FS SKOV-3/OVISE increased over Comparator E, (+) sign (SKOV-3 (ATCC HTB-77); Table S): (+); FS SKOV-3/OVISE (SKOV-3 (ATCC HTB-77); Table S): 25; IC50 (HCT116 cells): 54 nM |
| CC(C)(C)NC(=O)O[C@@H]1CC[C@H](c2cc(Nc3cccnn3)n[nH]2)C1 [Example 4I, (1R,3S)-3-(3-(pyridazin-3-ylamino)-1H-pyrazol-5-yl)cyclopentyl tert-butylcarbamate] | 45 nM | 18 | 18 | 2.5 nM | 18 | 13 | 2.5 nM | 1.1 fold | 2.5 nM | 0.2 fold | 33 nM | (+) | 13 | 13 | 240 nM | 20 | 0.63 | 16 fold | 0.7 fold | 4900 nM | selectivity for CDK2 over CDK4 compared with Comparator E (SKOV-3 (ATCC HTB-77)): increase in selectivity for CDK2 over CDK4; FS SKOV-3/OVISE increased over Comparator D, (+) sign (SKOV-3 (ATCC HTB-77); Table R): (+); FS SKOV-3/OVISE (SKOV-3 (ATCC HTB-77); Table R): 20; FS SKOV-3/OVISE increased over Comparator E, (+) sign (SKOV-3 (ATCC HTB-77); Table S): (+); FS SKOV-3/OVISE (SKOV-3 (ATCC HTB-77); Table S): 20; IC50 (HCT116 cells): 150 nM |
| CC(C)(C)NC(=O)O[C@@H]1CC[C@H](c2cc(Nc3ncccn3)n[nH]2)C1 [Example 4J, (1R,3S)-3-(3-(pyrimidin-2-ylamino)-1H-pyrazol-5-yl)cyclopentyl tert-butylcarbamate] | 170 nM | 68 | 68 | 2.5 nM | 68 | 4.4 | 2.5 nM | 1.1 fold | 2.5 nM | 0.2 fold | 11 nM | (+) | 4.4 | 4.4 | 320 nM | 3.8 | 1.1 | 12 fold | 0.5 fold | 1200 nM | FS CDK1/CDK2 increased over Comparator D, (+) sign ([1]; Table R): (+); FS CDK1/CDK2 increased over Comparator E, (+) sign ([1]; Table S): (+); IC50 (SKOV-3 (ATCC HTB-77); SK-OV-3, Table R): 1200 nM; IC50 (SKOV-3 (ATCC HTB-77); SK-OV-3, Table S): 1200 nM; FS SKOV-3/OVISE increased over Comparator D, (+) sign (SKOV-3 (ATCC HTB-77); Table R): (+); FS SKOV-3/OVISE (SKOV-3 (ATCC HTB-77); Table R): 3.8; FS SKOV-3/OVISE (SKOV-3 (ATCC HTB-77); Table S): 3.8; IC50 (HCT116 cells): 360 nM |
